According to publication PMC8800111 (The Journal of Biological Chemistry, 2021):

Columns and labels:
Type in all cases: cell-based
[1] = molecular target: proteins of U3A human fibrosarcoma cells (4462 proteins detected) (Homo sapiens, UniProt O00764); conditions: protein PDXK, U3A cells
[2] = molecular target: proteins of U3A human fibrosarcoma cells (4462 proteins detected) (Homo sapiens, UniProt O14828); conditions: protein SCAMP3; soluble abundance after heat, U3A cells
[3] = molecular target: proteins of U3A human fibrosarcoma cells (4462 proteins detected) (Homo sapiens, UniProt O15042); conditions: protein U2SURP; U3A cells
[4] = molecular target: proteins of U3A human fibrosarcoma cells (4462 proteins detected) (Homo sapiens, UniProt O15164); conditions: protein TRIM24; U3A cells
[5] = molecular target: proteins of U3A human fibrosarcoma cells (4462 proteins detected) (Homo sapiens, UniProt O60293); conditions: protein ZFC3H1; U3A cells
[6] = molecular target: proteins of U3A human fibrosarcoma cells (4462 proteins detected) (Homo sapiens, UniProt P08670); conditions: protein VIM; U3A cells
[7] = molecular target: proteins of U3A human fibrosarcoma cells (4462 proteins detected) (Homo sapiens, UniProt P17706); conditions: protein PTPN2, U3A cells
[8] = molecular target: proteins of U3A human fibrosarcoma cells (4462 proteins detected) (Homo sapiens, UniProt P17844); conditions: protein DDX5; U3A cells
[9] = molecular target: proteins of U3A human fibrosarcoma cells (4462 proteins detected) (Homo sapiens, UniProt P23528); conditions: protein CFL1, U3A cells
[10] = molecular target: proteins of U3A human fibrosarcoma cells (4462 proteins detected) (Homo sapiens, UniProt P25325); conditions: protein MPST, U3A cells
[11] = molecular target: proteins of U3A human fibrosarcoma cells (4462 proteins detected) (Homo sapiens, UniProt P25787); conditions: protein PSMA2, U3A cells
[12] = molecular target: proteins of U3A human fibrosarcoma cells (4462 proteins detected) (Homo sapiens, UniProt P62701); conditions: protein RPS4X; soluble abundance after heat, U3A cells
[13] = molecular target: proteins of U3A human fibrosarcoma cells (4462 proteins detected) (Homo sapiens, UniProt Q09161); conditions: protein NCBP1; soluble abundance after heat, U3A cells
[14] = molecular target: proteins of U3A human fibrosarcoma cells (4462 proteins detected) (Homo sapiens, UniProt Q13303); conditions: protein KCNAB2, U3A cells
[15] = molecular target: proteins of U3A human fibrosarcoma cells (4462 proteins detected) (Homo sapiens, UniProt Q14847); conditions: protein LASP1, U3A cells
[16] = molecular target: proteins of U3A human fibrosarcoma cells (4462 proteins detected) (Homo sapiens, UniProt Q49AR2); conditions: protein C5orf22, U3A cells
[17] = molecular target: proteins of U3A human fibrosarcoma cells (4462 proteins detected) (Homo sapiens, UniProt Q658Y4); conditions: protein FAM91A1; soluble abundance after heat, U3A cells
[18] = molecular target: proteins of U3A human fibrosarcoma cells (4462 proteins detected) (Homo sapiens, UniProt Q7L5N1); conditions: protein COPS6; U3A cells
[19] = molecular target: proteins of U3A human fibrosarcoma cells (4462 proteins detected) (Homo sapiens, UniProt Q8IWX8); conditions: protein CHERP; soluble abundance after heat, U3A cells
[20] = molecular target: proteins of U3A human fibrosarcoma cells (4462 proteins detected) (Homo sapiens, UniProt Q8TBF4); conditions: protein ZCRB1; soluble abundance after heat, U3A cells
[21] = molecular target: proteins of U3A human fibrosarcoma cells (4462 proteins detected) (Homo sapiens, UniProt Q8TD30); conditions: protein GPT2; U3A cells
[22] = molecular target: proteins of U3A human fibrosarcoma cells (4462 proteins detected) (Homo sapiens, UniProt Q8WUR7); conditions: protein C15orf40, U3A cells
[23] = molecular target: proteins of U3A human fibrosarcoma cells (4462 proteins detected) (Homo sapiens, UniProt Q92797); conditions: protein SYMPK; soluble abundance after heat, U3A cells
[24] = molecular target: proteins of U3A human fibrosarcoma cells (4462 proteins detected) (Homo sapiens, UniProt Q96AC1); conditions: protein FERMT2; U3A cells
[25] = molecular target: proteins of U3A human fibrosarcoma cells (4462 proteins detected) (Homo sapiens, UniProt Q96CB9); conditions: protein NSUN4; U3A cells
[26] = molecular target: proteins of U3A human fibrosarcoma cells (4462 proteins detected) (Homo sapiens, UniProt Q9BZE1); conditions: protein MRPL37; U3A, 10 μM, 2 h
[27] = molecular target: proteins of U3A human fibrosarcoma cells (4462 proteins detected) (Homo sapiens, UniProt Q9H4A6); conditions: protein GOLPH3; U3A cells
[28] = molecular target: proteins of U3A human fibrosarcoma cells (4462 proteins detected) (Homo sapiens, UniProt Q9P032); conditions: protein NDUFAF4; U3A cells
[29] = molecular target: proteins of U3A human fibrosarcoma cells (4462 proteins detected) (Homo sapiens, UniProt Q9UPN9); conditions: protein TRIM33; U3A cells
[30] = molecular target: proteins of U3A human fibrosarcoma cells (4462 proteins detected) (Homo sapiens, UniProt Q9Y478); conditions: protein PRKAB1; U3A cells
Sequence of proteins of U3A human fibrosarcoma cells (4462 proteins detected) (Homo sapiens, UniProt Q9Y478) (Q9Y478 whole entry): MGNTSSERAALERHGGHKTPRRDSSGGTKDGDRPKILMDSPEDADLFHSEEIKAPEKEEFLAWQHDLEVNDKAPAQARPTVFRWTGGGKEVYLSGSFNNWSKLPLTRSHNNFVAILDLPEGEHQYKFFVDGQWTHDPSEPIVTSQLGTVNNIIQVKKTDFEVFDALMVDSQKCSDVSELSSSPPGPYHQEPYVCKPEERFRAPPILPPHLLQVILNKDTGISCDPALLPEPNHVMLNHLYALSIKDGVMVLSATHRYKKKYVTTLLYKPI

Sequence of proteins of U3A human fibrosarcoma cells (4462 proteins detected) (Homo sapiens, UniProt O00764) (O00764 whole entry): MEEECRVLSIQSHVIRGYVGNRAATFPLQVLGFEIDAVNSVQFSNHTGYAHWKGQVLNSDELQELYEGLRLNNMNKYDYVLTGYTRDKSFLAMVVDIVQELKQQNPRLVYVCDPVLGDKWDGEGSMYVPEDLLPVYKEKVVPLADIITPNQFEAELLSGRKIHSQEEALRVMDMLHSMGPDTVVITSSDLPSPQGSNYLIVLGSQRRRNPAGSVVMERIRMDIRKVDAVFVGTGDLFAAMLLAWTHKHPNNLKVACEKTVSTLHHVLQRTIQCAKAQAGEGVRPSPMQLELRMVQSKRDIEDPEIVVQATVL
Sequence of proteins of U3A human fibrosarcoma cells (4462 proteins detected) (Homo sapiens, UniProt Q14847) (Q14847 whole entry): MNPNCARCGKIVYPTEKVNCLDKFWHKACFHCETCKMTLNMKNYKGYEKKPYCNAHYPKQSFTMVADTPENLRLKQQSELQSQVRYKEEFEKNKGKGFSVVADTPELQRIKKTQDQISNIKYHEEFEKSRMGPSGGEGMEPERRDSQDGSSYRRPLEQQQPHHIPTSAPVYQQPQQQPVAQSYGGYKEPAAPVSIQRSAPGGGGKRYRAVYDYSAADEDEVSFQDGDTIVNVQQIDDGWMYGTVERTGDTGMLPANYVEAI
Sequence of proteins of U3A human fibrosarcoma cells (4462 proteins detected) (Homo sapiens, UniProt P25787) (P25787 whole entry): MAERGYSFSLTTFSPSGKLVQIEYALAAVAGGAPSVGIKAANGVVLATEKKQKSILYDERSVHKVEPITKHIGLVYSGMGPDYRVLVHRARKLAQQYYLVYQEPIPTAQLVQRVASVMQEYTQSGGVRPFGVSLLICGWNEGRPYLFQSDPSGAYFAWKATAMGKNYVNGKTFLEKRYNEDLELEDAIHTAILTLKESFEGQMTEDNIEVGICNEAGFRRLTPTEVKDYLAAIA
Sequence of proteins of U3A human fibrosarcoma cells (4462 proteins detected) (Homo sapiens, UniProt Q7L5N1) (Q7L5N1 whole entry): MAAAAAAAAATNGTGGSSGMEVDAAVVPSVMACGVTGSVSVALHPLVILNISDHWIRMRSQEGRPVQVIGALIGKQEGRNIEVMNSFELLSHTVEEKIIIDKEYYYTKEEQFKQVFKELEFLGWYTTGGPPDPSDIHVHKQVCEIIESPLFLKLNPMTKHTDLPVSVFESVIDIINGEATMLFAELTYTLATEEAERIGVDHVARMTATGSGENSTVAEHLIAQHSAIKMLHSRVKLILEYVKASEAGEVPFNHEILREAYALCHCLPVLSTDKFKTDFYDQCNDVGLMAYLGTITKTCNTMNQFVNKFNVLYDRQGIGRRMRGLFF
Sequence of proteins of U3A human fibrosarcoma cells (4462 proteins detected) (Homo sapiens, UniProt P17844) (P17844 whole entry): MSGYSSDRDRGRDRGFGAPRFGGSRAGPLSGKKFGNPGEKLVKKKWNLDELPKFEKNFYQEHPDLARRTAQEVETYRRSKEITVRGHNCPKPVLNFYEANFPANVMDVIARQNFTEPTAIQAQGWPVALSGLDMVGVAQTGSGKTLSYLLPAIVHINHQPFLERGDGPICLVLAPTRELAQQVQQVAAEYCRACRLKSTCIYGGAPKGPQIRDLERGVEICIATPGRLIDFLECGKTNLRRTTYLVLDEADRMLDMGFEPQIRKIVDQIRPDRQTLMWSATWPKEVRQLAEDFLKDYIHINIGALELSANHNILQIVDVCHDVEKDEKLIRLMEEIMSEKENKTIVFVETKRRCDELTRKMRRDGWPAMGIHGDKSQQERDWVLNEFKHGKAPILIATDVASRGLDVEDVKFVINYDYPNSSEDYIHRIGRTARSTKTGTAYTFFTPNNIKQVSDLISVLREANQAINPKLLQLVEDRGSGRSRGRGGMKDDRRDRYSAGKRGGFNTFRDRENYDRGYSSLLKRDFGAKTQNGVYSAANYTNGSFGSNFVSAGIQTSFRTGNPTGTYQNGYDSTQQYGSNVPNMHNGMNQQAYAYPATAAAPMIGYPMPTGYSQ
Sequence of proteins of U3A human fibrosarcoma cells (4462 proteins detected) (Homo sapiens, UniProt P25325) (P25325 whole entry): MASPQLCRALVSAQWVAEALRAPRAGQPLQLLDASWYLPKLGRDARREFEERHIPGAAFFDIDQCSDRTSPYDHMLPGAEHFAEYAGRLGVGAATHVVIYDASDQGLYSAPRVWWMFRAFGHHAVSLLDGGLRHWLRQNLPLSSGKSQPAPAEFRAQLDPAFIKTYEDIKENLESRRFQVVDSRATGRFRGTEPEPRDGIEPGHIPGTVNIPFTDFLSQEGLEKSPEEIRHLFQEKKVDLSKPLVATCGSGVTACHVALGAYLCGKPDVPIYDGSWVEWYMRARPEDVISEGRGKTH
Sequence of proteins of U3A human fibrosarcoma cells (4462 proteins detected) (Homo sapiens, UniProt Q96AC1) (Q96AC1 whole entry): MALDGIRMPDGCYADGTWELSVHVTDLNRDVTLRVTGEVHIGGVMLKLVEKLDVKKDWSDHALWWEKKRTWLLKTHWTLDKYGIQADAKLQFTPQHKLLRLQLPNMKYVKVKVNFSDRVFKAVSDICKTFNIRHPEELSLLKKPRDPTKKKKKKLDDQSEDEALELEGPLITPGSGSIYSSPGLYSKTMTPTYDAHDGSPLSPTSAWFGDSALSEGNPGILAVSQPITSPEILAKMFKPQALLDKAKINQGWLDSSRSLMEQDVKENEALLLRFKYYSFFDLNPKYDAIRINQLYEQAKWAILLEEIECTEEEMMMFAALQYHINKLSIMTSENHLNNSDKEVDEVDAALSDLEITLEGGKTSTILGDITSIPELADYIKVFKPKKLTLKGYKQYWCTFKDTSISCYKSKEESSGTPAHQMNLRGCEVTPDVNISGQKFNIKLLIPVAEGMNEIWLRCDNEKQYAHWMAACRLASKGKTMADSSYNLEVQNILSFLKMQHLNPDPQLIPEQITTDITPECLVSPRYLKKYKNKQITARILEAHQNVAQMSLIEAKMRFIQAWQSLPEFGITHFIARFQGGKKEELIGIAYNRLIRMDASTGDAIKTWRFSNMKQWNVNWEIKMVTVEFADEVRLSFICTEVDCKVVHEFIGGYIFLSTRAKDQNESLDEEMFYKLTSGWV
Sequence of proteins of U3A human fibrosarcoma cells (4462 proteins detected) (Homo sapiens, UniProt Q9P032) (Q9P032 whole entry): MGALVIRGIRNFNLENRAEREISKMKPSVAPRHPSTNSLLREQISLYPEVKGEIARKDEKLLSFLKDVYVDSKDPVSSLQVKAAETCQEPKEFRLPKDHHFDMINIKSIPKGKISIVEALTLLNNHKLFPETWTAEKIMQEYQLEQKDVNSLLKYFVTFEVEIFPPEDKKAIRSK
Sequence of proteins of U3A human fibrosarcoma cells (4462 proteins detected) (Homo sapiens, UniProt Q8IWX8) (Q8IWX8 whole entry): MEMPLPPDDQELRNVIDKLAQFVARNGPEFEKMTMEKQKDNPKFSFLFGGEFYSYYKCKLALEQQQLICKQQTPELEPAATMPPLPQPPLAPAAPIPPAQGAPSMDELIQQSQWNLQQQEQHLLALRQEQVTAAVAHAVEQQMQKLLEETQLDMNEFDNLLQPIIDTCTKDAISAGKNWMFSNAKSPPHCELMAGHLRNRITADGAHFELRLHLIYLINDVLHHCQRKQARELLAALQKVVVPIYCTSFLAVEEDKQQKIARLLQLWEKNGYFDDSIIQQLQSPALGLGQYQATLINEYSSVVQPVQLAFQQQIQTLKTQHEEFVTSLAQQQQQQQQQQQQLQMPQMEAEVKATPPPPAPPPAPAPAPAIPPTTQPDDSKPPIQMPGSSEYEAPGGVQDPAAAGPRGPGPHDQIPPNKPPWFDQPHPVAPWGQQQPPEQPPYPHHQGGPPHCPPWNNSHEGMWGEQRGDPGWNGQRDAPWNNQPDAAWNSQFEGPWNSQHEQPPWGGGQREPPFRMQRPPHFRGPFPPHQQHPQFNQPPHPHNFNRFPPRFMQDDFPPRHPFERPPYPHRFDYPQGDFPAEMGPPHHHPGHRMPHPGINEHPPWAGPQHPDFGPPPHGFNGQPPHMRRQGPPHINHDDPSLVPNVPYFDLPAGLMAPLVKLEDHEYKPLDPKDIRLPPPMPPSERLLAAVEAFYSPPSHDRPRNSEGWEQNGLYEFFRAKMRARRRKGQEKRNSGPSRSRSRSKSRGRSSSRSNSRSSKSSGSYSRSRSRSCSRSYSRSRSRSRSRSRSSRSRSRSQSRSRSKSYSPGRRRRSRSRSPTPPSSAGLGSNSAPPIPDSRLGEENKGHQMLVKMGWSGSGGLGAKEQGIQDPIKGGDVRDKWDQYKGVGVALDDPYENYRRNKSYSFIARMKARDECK
Sequence of proteins of U3A human fibrosarcoma cells (4462 proteins detected) (Homo sapiens, UniProt P23528) (P23528 whole entry): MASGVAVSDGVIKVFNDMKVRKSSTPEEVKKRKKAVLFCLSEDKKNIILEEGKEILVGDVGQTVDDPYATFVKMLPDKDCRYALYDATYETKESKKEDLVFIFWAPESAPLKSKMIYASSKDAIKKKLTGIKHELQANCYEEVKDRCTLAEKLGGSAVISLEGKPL
Sequence of proteins of U3A human fibrosarcoma cells (4462 proteins detected) (Homo sapiens, UniProt Q49AR2) (Q49AR2 whole entry): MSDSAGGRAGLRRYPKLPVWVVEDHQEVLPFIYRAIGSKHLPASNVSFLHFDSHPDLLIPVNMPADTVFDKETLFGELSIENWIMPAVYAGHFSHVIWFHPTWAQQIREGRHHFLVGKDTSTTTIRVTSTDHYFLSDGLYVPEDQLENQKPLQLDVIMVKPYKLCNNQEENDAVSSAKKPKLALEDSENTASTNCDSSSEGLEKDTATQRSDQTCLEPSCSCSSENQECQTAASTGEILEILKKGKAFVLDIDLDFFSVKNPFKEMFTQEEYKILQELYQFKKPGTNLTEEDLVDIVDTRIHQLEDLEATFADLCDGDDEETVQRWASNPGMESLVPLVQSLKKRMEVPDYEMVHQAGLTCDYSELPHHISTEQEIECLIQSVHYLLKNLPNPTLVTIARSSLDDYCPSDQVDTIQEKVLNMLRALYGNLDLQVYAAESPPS
Sequence of proteins of U3A human fibrosarcoma cells (4462 proteins detected) (Homo sapiens, UniProt Q8TBF4) (Q8TBF4 whole entry): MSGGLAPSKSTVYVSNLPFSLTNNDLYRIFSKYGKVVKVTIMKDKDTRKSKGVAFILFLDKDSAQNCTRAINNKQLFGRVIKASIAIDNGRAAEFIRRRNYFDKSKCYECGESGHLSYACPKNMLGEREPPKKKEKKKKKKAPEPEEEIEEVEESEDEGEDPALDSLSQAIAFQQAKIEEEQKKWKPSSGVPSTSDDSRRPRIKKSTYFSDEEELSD

SMILES: CCc1nc(N)nc(N)c1-c1ccc(Cl)cc1 [pyrimethamine]
- Log2 (PYR/DMSO) [1]: -0.05
- Log2 (PYR/DMSO) [2]: 0.14
- Log2 (PYR/DMSO) [3]: 0.18
- Log2 (PYR/DMSO) [4]: 0.16
- Log2 (PYR/DMSO) [5]: 0.18
- Log2 (PYR/DMSO) [6]: 0.17
- Log2 (PYR/DMSO) [7]: -0.04
- Log2 (PYR/DMSO) [8]: 0.19
- Log2 (PYR/DMSO) [9]: -0.04
- Log2 (PYR/DMSO) [10]: -0.05
- Log2 (PYR/DMSO) [11]: -0.03
- Log2 (PYR/DMSO) [12]: 0.14
- Log2 (PYR/DMSO) [13]: 0.14
- Log2 (PYR/DMSO) [14]: -0.03
- Log2 (PYR/DMSO) [15]: -0.04
- Log2 (PYR/DMSO) [16]: -0.04
- Log2 (PYR/DMSO) [17]: 0.14
- Log2 (PYR/DMSO) [18]: 0.16
- Log2 (PYR/DMSO) [19]: 0.14
- Log2 (PYR/DMSO) [20]: 0.14
- Log2 (PYR/DMSO) [21]: 0.16
- Log2 (PYR/DMSO) [22]: -0.03
- Log2 (PYR/DMSO) [23]: 0.15
- Log2 (PYR/DMSO) [24]: 0.16
- Log2 (PYR/DMSO) [25]: 0.16
- Log2 (PYR/DMSO), MRPL37 [26]: 0.29
- Log2 (PYR/DMSO) [27]: 0.23
- Log2 (PYR/DMSO) [28]: 0.17
- Log2 (PYR/DMSO) [29]: 0.16
- Log2 (PYR/DMSO) [30]: 0.23
